In US6525001B1, “Substituted pyrimidine and pyridine herbicides” (Mid-American Commercialization Corporation, priority 1997, dated 2003):

Assays:
Type in all cases: in vivo
[1] = system: smallflower flatsedge (Cyperus difformis); test: Test B flood test
Summary of the method: (§1)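 Flood test on plants grown to the 2-leaf stage; treated plants kept in greenhouse twelve to sixteen days, then visually rated against controls on a 0 (no effect) to 10 (complete control) scale.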

rice (Oryza sativa) = test: Test B flood test
Summary of the method: as §1

[2] = system: bamyardgrass (Echinochloa crus-galli); test: Test B flood test
Summary of the method: as §1

[3] = system: duck salad (Heteranthera limosa); test: Test B flood test
Summary of the method: as §1

[4] = system: velvetleaf (Abutilon theophrasti); test: Test B pre-/postemergence; parameters: key: 0 is no effect; 10 is complete control
Summary of the method: (§2)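 Scored visually 0 (none) to 10 (complete control) against untreated plants after twelve to sixteen greenhouse days. Test chemicals, formulated in surfactant-containing non-phytotoxic solvent, applied to soil after planting and, separately, onto 1- to 4-leaf (2–18 cm) plants.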

[5] = system: broadleaf signalgrass (Brachiaria decumbens); test: Test B pre-/postemergence; parameters: key: 0 is no effect; 10 is complete control; details: for B. signalgrass plant response rating: Preemergence
Summary of the method: as §2

[6] = system: blackgrass (Alopecurus myosuroides); test: Test B pre-/postemergence; parameters: key: 0 is no effect; 10 is complete control; details: for Blackgrass plant response rating: Preemergence
Summary of the method: as §2

[7] = system: crabgrass (Digitaria sanguinalis); test: Test B pre-/postemergence; parameters: key: 0 is no effect; 10 is complete control; details: for Crabgrass plant response rating: Preemergence
Summary of the method: as §2

wild oat (Avena fatua) = test: Test B pre-/postemergence; parameters: key: 0 is no effect; 10 is complete control
Summary of the method: as §2

corn (Zea mays) = test: Test B pre-/postemergence; parameters: key: 0 is no effect; 10 is complete control; details: for Corn plant response rating: Preemergence
Summary of the method: as §2

rape (Brassica napus) = test: Test B pre-/postemergence; parameters: key: 0 is no effect; 10 is complete control
Summary of the method: as §2

[8] = system: momingglory (Ipomoea hederacea); test: Test B pre-/postemergence; parameters: key: 0 is no effect; 10 is complete control
Summary of the method: as §2

[9] = system: pigweed (Amaranthus retroflexus); test: Test B pre-/postemergence; parameters: key: 0 is no effect; 10 is complete control
Summary of the method: as §2

[10] = system: giant foxtail (Setaria faberii); test: Test B pre-/postemergence; parameters: key: 0 is no effect; 10 is complete control
Summary of the method: as §2

[11] = system: cocklebur (Xanthium strumarium); test: Test B pre-/postemergence; parameters: key: 0 is no effect; 10 is complete control; details: for Cocklebur plant response rating: Preemergence
Summary of the method: as §2

soybean (Glycine max) = test: Test B pre-/postemergence; parameters: key: 0 is no effect; 10 is complete control
Summary of the method: as §2

[12] = system: bedstraw (Galium aparine); test: Test B pre-/postemergence; parameters: key: 0 is no effect; 10 is complete control; details: for Bedstraw plant response rating: Preemergence
Summary of the method: as §2

[13] = system: wheat (Triticum aestivum); test: Test B pre-/postemergence; parameters: key: 0 is no effect; 10 is complete control
Summary of the method: as §2

[14] = system: sugar beet (Beta vulgaris); test: Test B pre-/postemergence; parameters: key: 0 is no effect; 10 is complete control
Summary of the method: as §2

[15] = system: purple nutsedge (Cyperus rotundus); test: Test B pre-/postemergence; parameters: key: 0 is no effect; 10 is complete control
Summary of the method: as §2

[16] = Rate 62 g/ha, Postemergence (flood test)
[17] = Rate 125 g/ha, Postemergence section (flood test species)
[18] = Rate 250 g/ha, Postemergence (flood test species)
[19] = Rate 500 g/ha, Postemergence (flood test species)
[20] = Rate 125 g/ha, Postemergence, flood test
[21] = Rate 250 g/ha, Postemergence (so in the source)

## Cc1cnc(-c2ccc(C(F)(F)F)cc2)nc1Cc1cccc(C#N)c1 [Compound 32]
[1]; [16]
  Plant response rating, S. Flatsedge: 2
[1]; [17]
  S. Flatsedge plant response rating: 5
[1]; [18]
  Plant response rating, S. Flatsedge: 6
[1]; [19]
  Plant response rating, S. Flatsedge: 7
Rice (Oryza sativa); [16]
  Plant response rating, Rice: 1
Rice (Oryza sativa); [17]
  Rice plant response rating: 1
Rice (Oryza sativa); [18]
  Plant response rating, Rice: 2
Rice (Oryza sativa); [19]
  Plant response rating, Rice: 2
[2]; [16]
  Plant response rating, Barnyardgrass: 2
[2]; [20]
  Plant response rating, Barnyardgrass: 3
[2]; [18]
  Plant response rating, Barnyardgrass: 3
[2]; [19]
  Plant response rating, Barnyardgrass: 4
[3]; [16]
  Plant response rating, Ducksalad: 2
[3]; [20]
  Plant response rating, Ducksalad: 3
[3]; [18]
  Plant response rating, Ducksalad: 4
[3]; [19]
  Plant response rating, Ducksalad: 6
[4]; Rate 62 g/ha, Postemergence
  Plant response rating, Velvetleaf: 4
[4]; Rate 62 g/ha, Preemergence
  Velvetleaf plant response rating: 6
[4]; Rate 125 g/ha, Postemergence
  Velvetleaf plant response rating: 8
[4]; Rate 125 g/ha, Preemergence
  Plant response rating, Velvetleaf: 9
[4]; Rate 250 g/ha, Postemergence
  Plant response rating, Velvetleaf: 9
[4]; [21]
  Plant response rating, Velvetleaf: 10
[5]; Rate 62 g/ha, Postemergence
  Plant response rating, B. signalgrass: 1
[5]; Rate 62 g/ha
  B. signalgrass plant response rating: 2
[5]; Rate 125 g/ha, Postemergence
  Plant response rating, B. signalgrass: 2
[5]; Rate 125 g/ha
  B. signalgrass plant response rating: 6
[5]; Rate 250 g/ha, Postemergence
  Plant response rating, B. signalgrass: 2
[5]; Rate 250 g/ha, Postemergence as printed in head r139 (second section for compounds 26-50)
  Plant response rating, B. signalgrass: 7
[6]; Rate 62 g/ha, Postemergence
  Plant response rating, Blackgrass: 1
[6]; Rate 62 g/ha
  Blackgrass plant response rating: 1
[6]; Rate 125 g/ha, Postemergence
  Plant response rating, Blackgrass: 2
[6]; Rate 125 g/ha
  Blackgrass plant response rating: 2
[6]; Rate 250 g/ha, Postemergence
  Plant response rating, Blackgrass: 5
[6]; [21]
  Plant response rating, Blackgrass: 4
[7]; Rate 62 g/ha, Postemergence
  Plant response rating, Crabgrass: 1
[7]; Rate 62 g/ha
  Crabgrass plant response rating: 1
[7]; Rate 125 g/ha, Postemergence
  Plant response rating, Crabgrass: 2
[7]; Rate 125 g/ha
  Crabgrass plant response rating: 1
[7]; Rate 250 g/ha, Postemergence
  Plant response rating, Crabgrass: 2
[7]; [21]
  Plant response rating, Crabgrass: 3
Wild oat (Avena fatua); Rate 62 g/ha, Postemergence
  Wild oats plant response rating: 1
Wild oat (Avena fatua); Rate 62 g/ha, Preemergence
  Wild oats plant response rating: 2
Wild oat (Avena fatua); Rate 125 g/ha, Postemergence
  Wild oats plant response rating: 3
Wild oat (Avena fatua); Rate 125 g/ha, Preemergence
  Plant response rating, Wild oats: 3
Wild oat (Avena fatua); Rate 250 g/ha, Postemergence
  Plant response rating, Wild oats: 3
Wild oat (Avena fatua); [21]
  Plant response rating, Wild oats: 4
Corn (Zea mays); Rate 62 g/ha, Postemergence
  Plant response rating, Corn: 1
Corn (Zea mays); Rate 62 g/ha
  Corn plant response rating: 0
Corn (Zea mays); Rate 125 g/ha, Postemergence
  Plant response rating, Corn: 1
Corn (Zea mays); Rate 125 g/ha
  Corn plant response rating: 0
Corn (Zea mays); Rate 250 g/ha, Postemergence
  Plant response rating, Corn: 1
Corn (Zea mays); [21]
  Plant response rating, Corn: 0
Rape (Brassica napus); Rate 62 g/ha, Postemergence
  Plant response rating, Rape: 8
Rape (Brassica napus); Rate 62 g/ha, Preemergence
  Rape plant response rating: 2
Rape (Brassica napus); Rate 125 g/ha, Postemergence
  Rape plant response rating: 8
Rape (Brassica napus); Rate 125 g/ha, Preemergence
  Rape plant response rating: 10
Rape (Brassica napus); Rate 250 g/ha, Postemergence
  Plant response rating, Rape: 8
Rape (Brassica napus); [21]
  Plant response rating, Rape: 10
[8]; Rate 62 g/ha, Postemergence
  Plant response rating, Morningglory: 7
[8]; Rate 62 g/ha, Preemergence
  Morningglory plant response rating: 1
[8]; Rate 125 g/ha, Postemergence
  Morningglory plant response rating: 8
[8]; Rate 125 g/ha, Preemergence
  Morningglory plant response rating: 2
[8]; Rate 250 g/ha, Postemergence
  Plant response rating, Morningglory: 10
[8]; [21]
  Plant response rating, Morningglory: 3
[9]; Rate 62 g/ha, Postemergence
  Plant response rating, Redroot pigweed: 6
[9]; Rate 62 g/ha, Preemergence
  Redroot pigweed plant response rating: 8
[9]; Rate 125 g/ha, Postemergence
  Redroot pigweed plant response rating: 9
[9]; Rate 125 g/ha, Preemergence
  Redroot pigweed plant response rating: 10
[9]; Rate 250 g/ha, Postemergence
  Plant response rating, Redroot pigweed: 9
[9]; [21]
  Plant response rating, Redroot pigweed: 10
[10]; Rate 62 g/ha, Postemergence
  Plant response rating, Giant foxtail: 1
[10]; Rate 62 g/ha, Preemergence
  Giant foxtail plant response rating: 1
[10]; Rate 125 g/ha, Postemergence
  Giant foxtail plant response rating: 1
[10]; Rate 125 g/ha, Preemergence
  Giant foxtail plant response rating: 2
[10]; Rate 250 g/ha, Postemergence
  Plant response rating, Giant foxtail: 2
[10]; [21]
  Plant response rating, Giant foxtail: 5
[11]; Rate 62 g/ha, Postemergence
  Plant response rating, Cocklebur: 8
[11]; Rate 62 g/ha
  Cocklebur plant response rating: 0
[11]; Rate 125 g/ha, Postemergence
  Plant response rating, Cocklebur: 8
[11]; Rate 125 g/ha
  Cocklebur plant response rating: 0
[11]; Rate 250 g/ha, Postemergence
  Plant response rating, Cocklebur: 9
[11]; [21]
  Plant response rating, Cocklebur: 0
Soybean (Glycine max); Rate 62 g/ha, Postemergence
  Plant response rating, Soybean: 4
Soybean (Glycine max); Rate 62 g/ha, Preemergence
  Soybean plant response rating: 0
Soybean (Glycine max); Rate 125 g/ha, Postemergence
  Soybean plant response rating: 5
Soybean (Glycine max); Rate 125 g/ha, Preemergence
  Plant response rating, Soybean: 0
Soybean (Glycine max); Rate 250 g/ha, Postemergence
  Plant response rating, Soybean: 6
Soybean (Glycine max); [21]
  Plant response rating, Soybean: 1
[12]; Rate 62 g/ha, Postemergence
  Plant response rating, Bedstraw: 6
[12]; Rate 62 g/ha
  Bedstraw plant response rating: 3
[12]; Rate 125 g/ha, Postemergence
  Plant response rating, Bedstraw: 6
[12]; Rate 125 g/ha
  Bedstraw plant response rating: 8
[12]; Rate 250 g/ha, Postemergence
  Plant response rating, Bedstraw: 10
[12]; [21]
  Plant response rating, Bedstraw: 10
[13]; Rate 62 g/ha, Postemergence
  Wheat plant response rating: 1
[13]; Rate 62 g/ha, Preemergence
  Wheat plant response rating: 0
[13]; Rate 125 g/ha, Postemergence
  Wheat plant response rating: 2
[13]; Rate 125 g/ha, Preemergence
  Plant response rating, Wheat: 0
[13]; Rate 250 g/ha, Postemergence
  Plant response rating, Wheat: 2
[13]; [21]
  Plant response rating, Wheat: 0
[14]; Rate 62 g/ha, Postemergence
  Plant response rating, Sugarbeets: 9
[14]; Rate 62 g/ha, Preemergence
  Sugarbeets plant response rating: 8
[14]; Rate 125 g/ha, Postemergence
  Sugarbeets plant response rating: 10
[14]; Rate 125 g/ha, Preemergence
  Plant response rating, Sugarbeets: 10
[14]; Rate 250 g/ha, Postemergence
  Plant response rating, Sugarbeets: 10
[14]; [21]
  Plant response rating, Sugarbeets: 10
[15]; Rate 62 g/ha, Postemergence
  Plant response rating, Nutsedge: 0
[15]; Rate 62 g/ha, Preemergence
  Nutsedge plant response rating: 0
[15]; Rate 125 g/ha, Postemergence
  Nutsedge plant response rating: 0
[15]; Rate 125 g/ha, Preemergence
  Nutsedge plant response rating: 0
[15]; Rate 250 g/ha, Postemergence
  Plant response rating, Nutsedge: 1
[15]; [21]
  Plant response rating, Nutsedge: 0
